Test results: the NIST ThermoML archive (doi:10.1016/j.jct.2011.06.024)

Assay: mn = molality of the nth substance listed, in mol/kg
Conditions: 101 kPa, Liquid, Capillary tube (Ostwald / Ubbelohde) method

CCCCCCCCCCCCOS(=O)(=O)[O-].[Na+] [sodium dodecyl sulfate] + O
viscosity [mPa·s]
Conditions	303.15 K	308.15 K	313.15 K	318.15 K	323.15 K
m1 = 0.007	0.8017	0.7228	0.6582	0.6009	0.5513
m1 = 0.01	0.8025	0.7285	0.6577	0.6026	0.5575

O=[N+]([O-])[O-].O=[N+]([O-])[O-].[Mg+2] [magnesium nitrate] + O
viscosity [mPa·s]
Conditions	m1 = 0.003029	m1 = 0.004005	m1 = 0.005059	m1 = 0.007003	m1 = 0.008141	m1 = 0.009263
303.15 K	0.8036	0.8293	0.8454	0.8685	0.8903	0.9014
308.15 K	0.7327	0.751	0.7688	0.7895	0.8097	0.8156
313.15 K	0.6665	0.6847	0.7021	0.721	0.7356	0.7458
318.15 K	0.6195	0.6272	0.6449	0.6635	0.6813	0.6958
323.15 K	0.5575	0.5773	0.5927	0.6106	0.6176	0.6305

[Cl-].[Cl-].[Mg+2] [magnesium chloride] + O
viscosity [mPa·s]
Conditions	m1 = 0.003022	m1 = 0.004	m1 = 0.005	m1 = 0.007	m1 = 0.007995	m1 = 0.008994
303.15 K	0.8039	0.8323	0.8483	0.8693	0.8885	0.9112
308.15 K	0.7343	0.7545	0.7723	0.7896	0.8071	0.8198
313.15 K	0.6675	0.6865	0.7031	0.7195	0.7366	0.7601
318.15 K	0.6213	0.6301	0.6466	0.6648	0.6804	0.6989
323.15 K	0.5775	0.5975	0.6196	0.6244	0.6481	0.6697

[Cl-].[K+] [potassium chloride] + O
viscosity [mPa·s]
Conditions	m1 = 0.003209	m1 = 0.003885	m1 = 0.004985	m1 = 0.006959	m1 = 0.008075	m1 = 0.009511
303.15 K	0.8063	0.8068	0.8076	0.8088	0.8094	0.8102
308.15 K	0.7279	0.7284	0.7292	0.7304	0.7286	0.7316
313.15 K	0.6616	0.6621	0.6629	0.6641	0.6647	0.6655
318.15 K	0.6045	0.6051	0.6059	0.6071	0.6077	0.6086
323.15 K	0.5552	0.5557	0.5566	0.5578	0.5584	0.5592

O=[N+]([O-])[O-].[K+] [potassium nitrate] + O
viscosity [mPa·s]
Conditions	m1 = 0.003067	m1 = 0.003997	m1 = 0.005019	m1 = 0.006997	m1 = 0.008615	m1 = 0.01033
303.15 K	0.8152	0.8175	0.819	0.8217	0.8244	0.8263
308.15 K	0.7365	0.7382	0.731	0.7433	0.7449	0.7472
313.15 K	0.6691	0.6705	0.6722	0.6752	0.6775	0.6782
318.15 K	0.6139	0.6157	0.6178	0.621	0.6231	0.6253
323.15 K	0.5658	0.568	0.5701	0.5737	0.5761	0.5785
